Results from PubChem BioAssay AID1259407 (Chemical Carcinogenesis Research Information System (CCRIS), 2018).
The source made the active and inactive calls. How the calls were made is not given here.

Test system: CCRIS mutagenicity, Ames/micronucleus/aberration tests
Experiment: CCRIS mutagenicity studies
[1] = Test System: AMES SALMONELLA TYPHIMURIUM, Strain/Indicator: TA100, Metabolic Activation: NONE, Method: STANDARD PLATE
[2] = Test System: AMES SALMONELLA TYPHIMURIUM, Strain/Indicator: TA100, Metabolic Activation: RAT, LIVER, S-9, PCB, Method: STANDARD PLATE

With `Oc1ccc(O)cc1` the mutagenic call (End Point: IN VITRO CHROMOSOMAL ABERRATIONS, Test System: CHINESE HAMSTER OVARY CELLS, Metabolic Activation: NONE) was “inactive; negative”, the mutagenic call (End Point: IN VITRO CHROMOSOMAL ABERRATIONS, Test System: CHINESE HAMSTER OVARY CELLS, Metabolic Activation: RAT, LIVER, S-9, AROCLOR 1254) was “active; positive” and the mutagenic call (End Point: IN VITRO CHROMOSOMAL ABERRATIONS, Test System: CHINESE HAMSTER V79 CELLS, Metabolic Activation: NONE) was “active; positive; effective at higher doses at ph 7.4”. For the same molecule, the mutagenic call (End Point: IN VITRO CHROMOSOMAL ABERRATIONS, Test System: CHL/IU CELLS, Metabolic Activation: NONE) was “active; positive (structural changes)”, the mutagenic call (End Point: IN VITRO CHROMOSOMAL ABERRATIONS, Test System: HUMAN (MALE) PERIPHERAL BLOOD LYMPHOCYTES, Metabolic Activation: NONE) was “inactive; negative” and the mutagenic call (End Point: IN VITRO CHROMOSOMAL ABERRATIONS, Test System: HUMAN (MALE) PERIPHERAL BLOOD LYMPHOCYTES, Metabolic Activation: RAT, LIVER, S-9, AROCLOR 1254) was “inactive; negative”. The mutagenic call (End Point: IN VITRO CHROMOSOMAL ABERRATIONS, Test System: HUMAN PERIPHERAL LYMPHOCYTES, Metabolic Activation: NONE) was “active; positive (ploidy)”, the mutagenic call (End Point: IN VITRO CHROMOSOMAL ABERRATIONS, Test System: HUMAN PERIPHERAL LYMPHOCYTES, Metabolic Activation: NONE, Method: FISH) was “active; positive (ploidy); greater effects on certain chromosomes” and the mutagenic call (End Point: IN VITRO CHROMOSOMAL ABERRATIONS, Test System: HUMAN PERIPHERAL LYMPHOCYTES, Metabolic Activation: NONE, Method: FISH - DUAL COLOR PROBES) was “active; positive (structural and ploidy changes)”. For the same molecule, the mutagenic call (End Point: IN VITRO CHROMOSOMAL ABERRATIONS, Test System: HUMAN PERIPHERAL LYMPHOCYTES, Metabolic Activation: NONE, Method: FISH - SINGLE COLOR) was “active; positive (ploidy)”, the mutagenic call (End Point: IN VITRO CHROMOSOMAL ABERRATIONS, Test System: HUMAN PERIPHERAL LYMPHOCYTES, Metabolic Activation: NONE, Method: FISH- DUAL COLOR PROBES) was “inactive; negative for translocations” and the mutagenic call (End Point: IN VITRO CHROMOSOMAL ABERRATIONS, Test System: V79, Metabolic Activation: RAT, LIVER, S-9, AROCLOR 1254) was “active; positive; effective at higher doses at ph 7.4”. The mutagenic call (End Point: IN VITRO MICRONUCLEUS, Test System: CHL/IU CELLS, Metabolic Activation: NONE) was “active; positive”, the mutagenic call (End Point: IN VITRO MICRONUCLEUS, Test System: HAMSTER V79 CELLS, Metabolic Activation: NONE) was “active; positive” and the mutagenic call (End Point: IN VITRO MICRONUCLEUS, Test System: HUMAN LYMPHOCYTES, Metabolic Activation: NONE) was “active; positive; individuals with gstm1 null genotype more affected than those with gst”. The mutagenic call (End Point: In vitro chromosomal aberrations, Test System: Chinese hamster lung (CHL/IU) cells, Metabolic Activation: Rat, Liver, S9, Phenobarbital and 5,6-benzoflavone) was “active; positive (structural changes and ploidy). toxic at 0.12 mg/ml”, the mutagenic call (Test System: AMES SALMONELLA TYPHIMURIUM, Strain/Indicator: TA97, Metabolic Activation: NONE, Method: STANDARD PLATE) was “inactive; negative” and the mutagenic call (Test System: AMES SALMONELLA TYPHIMURIUM, Strain/Indicator: TA97, Metabolic Activation: RAT, LIVER, S-9, PCB, Method: STANDARD PLATE) was “inactive; negative”. For the same molecule, the mutagenic call (Test System: AMES SALMONELLA TYPHIMURIUM, Strain/Indicator: TA97, Metabolic Activation: RAT, LIVER, S-9, PHENOBARBITAL, Method: PREINCUBATION) was “active; positive”, the mutagenic call (Test System: AMES SALMONELLA TYPHIMURIUM, Strain/Indicator: TA98, Metabolic Activation: NONE, Method: PREINCUBATION) was “active; positive” and the mutagenic call (Test System: AMES SALMONELLA TYPHIMURIUM, Strain/Indicator: TA98, Metabolic Activation: NONE, Method: STANDARD PLATE) was “inactive; negative”. The mutagenic call (Test System: AMES SALMONELLA TYPHIMURIUM, Strain/Indicator: TA98, Metabolic Activation: RAT, LIVER, S-9, PCB, Method: STANDARD PLATE) was “inactive; negative”, the mutagenic call (Test System: AMES SALMONELLA TYPHIMURIUM, Strain/Indicator: TA98, Metabolic Activation: RAT, LIVER, S-9, PHENOBARBITAL, Method: PREINCUBATION) was “active; positive” and the mutagenic call (Test System: AMES SALMONELLA TYPHIMURIUM, Strain/Indicator: TA100, Metabolic Activation: NONE, Method: PREINCUBATION) was “active; positive”. The mutagenic call [1] was “inactive; negative”, the mutagenic call [2] was “inactive; negative” and the mutagenic call (Test System: AMES SALMONELLA TYPHIMURIUM, Strain/Indicator: TA100, Metabolic Activation: RAT, LIVER, S-9, PHENOBARBITAL, Method: PREINCUBATION) was “active; positive”. For the same molecule, the mutagenic call (Test System: AMES SALMONELLA TYPHIMURIUM, Strain/Indicator: TA102, Metabolic Activation: NONE, Method: STANDARD PLATE) was “active; positive”, the mutagenic call (Test System: AMES SALMONELLA TYPHIMURIUM, Strain/Indicator: TA104, Metabolic Activation: NONE, Method: PREINCUBATION) was “active; positive” and the mutagenic call (Test System: UDS SHE CELLS, Strain/Indicator: THY INCORP, Metabolic Activation: NONE, Method: LIQUID SCINTILLATION COUNTING) was “active; positive”.
For `COC(=O)c1cc2c([nH]c3ccccc32)c(-c2ccc3c(n2)C(=O)C=CC3=O)n1`, the mutagenic call [1] was “active; positive” and the mutagenic call [2] was “active; positive”.
